The subject of assay [1] is MDA-MB-231. The assay is described as follows: Tumor cell proliferation (MTS), MDA-MB-231. Particulars: Homo sapiens, MDA-MB-231, 72 hours. It counts as cell-based. The procedure: (§1) Measurement of in vivo cell proliferation:
(§2) Tumor cells were trypsinized and plated into 96-well plates at 3,000 per well and incubated in complete medium with 10% FBS for 24 hours. Compounds were added over a final concentration range of 100 μmol/L to 100 nmol/L in 0.1% DMSO and incubated for 72 hours in complete medium. The effects on proliferation were determined by addition of MTS reagent (Promega) according to the instruction, incubation for 2 hours at 37° C. in CO2 incubator, and record the absorbance at 490 nm using an ELISA plate reader.

Assay [2] relates to Ramos. The assay is described as follows: Tumor cell proliferation (MTS), Ramos. Particulars: Homo sapiens, 72 hours. It counts as cell-based. The method, then:
as §1, §2

In assay [3] the test system is A549. The assay is described as follows: Tumor cell proliferation (MTS), A549. It counts as cell-based. Particulars: Homo sapiens, A549, 72 hours. The procedure:
as §1, §2

The subject of assay [4] is HUVEC cells. The assay is described as follows: VEGF ligand-dependent cell proliferation. Format: cell-based. Particulars: Homo sapiens, VEGF 165 50 ng/ml, 72 hours, MTS. The method, then: VEGF dependent cell proliferation:
HUVEC cells were plated into 96-well plates at 6,000 per well and incubated with serum-free medium for 2 hours. Compounds and VEGF 165 (50 ng/ml) were added and incubated for 72 hours in serum-free medium. The effects on proliferation were determined by addition of MTS reagent (Promega) according to the instruction, incubation for 2 hours at 37° C. in CO2 incubator, and record the absorbance at 490 nm using an ELISA plate reader.

Assay [5] deals with Bel-7402. The assay is described as follows: Tumor cell proliferation (MTS), Bel-7402. It counts as cell-based. Particulars: Homo sapiens, Bel-7402, 72 hours. The method, then:
as §1, §2

In assay [6] the test system is total HDAC enzyme. The assay is described as follows: Total HDAC enzyme activity, HDAC Fluorimetric Assay (HeLa extract). It counts as biochemical, human. The procedure: Measurement of in vitro inhibition of total HDAC enzyme activity:
The in vitro inhibition of total HDAC enzyme was determined by HDAC Fluorimetric Assay/Drug Discovery Kit (BIOMOL) according to manufacture's instruction. • 1. Add Assay buffer, diluted trichostatin A or test inhibitor to appropriate wells of the microtiter plate. Following table lists examples of various assay types and the additions required for each test.
• 2. Add diluted HeLa extract or other HDAC sample to all wells except those that are to be “No Enzyme Controls” (Blank). • 3. Allow diluted Fluor de Lys™ Substrate and the samples in the microtiter plate to equilibrate to assay temperature (25° C.). • 4. Initiate HDAC reactions by adding diluted substrate (25 μl) to each well and mixing thoroughly. • 5. Allow HDAC reactions to proceed for desired length of time and then stop them by addition of Fluor de Lys™ Developer (50 μl). Incubate plate at room temperature (25° C.) for 10-15 min. • 6. Read samples in a microtiter-plate reading fluorimeter capable of excitation at a wavelength in the range 350-380 nm and detection of emitted light in the range 440-460 nm. Measurement of in vivo inhibition of HDAC subtype activity: […]

In assay [7] the test system is MCF7. The assay is described as follows: Tumor cell proliferation (MTS), MCF7. It counts as cell-based. Particulars: Homo sapiens, MCF7, 72 hours. The procedure: as §1, §2
In assay [8] the test system is U937. The assay is described as follows: Tumor cell proliferation (MTS), U937. Format: cell-based. Particulars: Homo sapiens, U-937, U937, 72 hours. The procedure: as §1, §2
The test system of assay [9] is Jurkat. The assay is described as follows: Tumor cell proliferation (MTS), Jurkat. Format: cell-based. Particulars: Homo sapiens, 72 hours. The method, then:
as §1, §2

The test system of assay [10] is HeLa. The assay is described as follows: Tumor cell proliferation (MTS), HeLa. Format: cell-based. Particulars: Homo sapiens, 72 hours. The method, then:
as §1, §2

Assay [11] has as its system HCT-8. The assay is described as follows: Tumor cell proliferation (MTS), HCT-8. Format: cell-based. Particulars: Homo sapiens, HCT-8, 72 hours. The method, then:
as §1, §2

The values that follow come from patent publication US8158656B2, “2-indolinone derivatives as multi-target protein kinase inhibitors and histone deacetylase inhibitors” (Shenzhen Chipscreen Biosciences Ltd., priority 2008, dated 2012).

What is called GI50 is the concentration giving 50% growth inhibition. A low value points to more potent growth inhibition.

Turning to `Cc1[nH]c(/C=N/N=C2\C(=O)Nc3ccc(F)cc32)c(C)c1C(=O)NCCCCNc1ccc(C(=O)Nc2ccccc2N)cn1` [Example 10, N-(2-aminophenyl)-6-(4-(2-(((5-fluoro-2-oxoindolin-3-ylidene)hydrazono)-methyl)-3,5-dimethyl-1H-pyrrole-4-carboxamido)butylamino)nicotinamide], the 50% growth inhibitory concentration (GI50) is over 60 µM in [1]; over 60 µM in assay [2]; over 60 µM in assay [3]; 568 nM in [4]; over 60 µM in assay [5]; over 60 µM in assay [7]. Moreover, the 50% growth inhibitory concentration (GI50) in assay [8], in assay [9], in [10] and in [11] was over 60 µM in each case. In assay [6], the “% inhibition of total HDAC enzyme activity at 30 μM” value (from here on “% inhibition”) was found to be 6.10%.

For the molecule `Cc1[nH]c(/C=N/N=C2\C(=O)Nc3ccc(F)cc32)c(C)c1C(=O)NCCNc1ccc(C(=O)Nc2ccc(F)cc2N)cn1` [Example 14, N-(2-amino-4-fluorophenyl)-6-(2-(2-(((5-fluoro-2-oxoindolin-3-ylidene)-hydrazono)methyl)-3,5-dimethyl-1H-pyrrole-4-carboxamido)ethylamino)nicotinamide], the 50% growth inhibitory concentration (GI50) in assay [1] was over 60 µM; in assay [2], over 60 µM; in assay [3], over 60 µM; in [4] it was 201 nM; in [5], over 60 µM; in [7] it was over 60 µM. Moreover, the GI50 in assay [8], in [9], in assay [10] and in assay [11] was over 60 µM in each case. For the same molecule, the “% inhibition” value in [6] is 1.00%.

As to `Cc1[nH]c(/C=N/N=C2\C(=O)Nc3ccc(F)cc32)c(C)c1C(=O)NCCCNc1ccc(C(=O)Nc2ccccc2N)cn1` [Example 7, N-(2-aminophenyl)-6-(3-(2-(((5-fluoro-2-oxoindolin-3-ylidene)hydrazono)-methyl)-3,5-dimethyl-1H-pyrrole-4-carboxamido)propylamino)nicotinamide], the concentration for 50% growth inhibition (GI50) is over 60 µM in [1]; over 60 µM in assay [2]; over 60 µM in [3]; 387 nM in assay [4]; over 60 µM in assay [5]; over 60 µM in [7]. The concentration for 50% growth inhibition (GI50) in assay [8], in assay [9], in assay [10] and in assay [11] was over 60 µM each time. Further, in assay [6], the “% inhibition” value is recorded as 7.80%.

As to `Cc1[nH]c(/C=C2\C(=O)Nc3ccc(F)cc32)c(C)c1C(=O)NCCCNc1ccc(C(=O)Nc2ccccc2N)cn1` [Example 6, (Z)-N-(2-aminophenyl)-6-(3-(2-((5-fluoro-2-oxoindolin-3-ylidene)methyl)-3,5-dimethyl-1H-pyrrole-4-carboxamido)propylamino)nicotinamide], the GI50 was over 60 µM in assay [1]; over 60 µM in [2]; over 60 µM in assay [3]; 9 nM in assay [4]; over 60 µM in assay [5]; over 60 µM in assay [7]. The GI50 in assay [8], in assay [9], in assay [10] and in assay [11] was over 60 µM throughout. The “% inhibition” value in [6] stood at 12.50%.

`Cc1[nH]c(/C=C2\C(=O)Nc3ccc(F)cc32)c(C)c1C(=O)NCCCCNc1ccc(C(=O)Nc2ccccc2N)cn1` [Example 9, (Z)-N-(2-aminophenyl)-6-(4-(2-((5-fluoro-2-oxoindolin-3-ylidene)methyl)-3,5-dimethyl-1H-pyrrole-4-carboxamido)butylamino)nicotinamide]: the GI50 in assay [1] was over 60 µM; in assay [2], over 60 µM; in [3] it was over 60 µM; in assay [4], 12 nM; in [5] it was over 60 µM; in assay [7] it was over 60 µM. In addition, the concentration for 50% growth inhibition (GI50) in assay [8], in assay [9], in assay [10] and in assay [11] was over 60 µM throughout. Besides, the “% inhibition” value in assay [6] was 6.30%.

Take `Cc1[nH]c(/C=C2\C(=O)Nc3ccc(F)cc32)c(C)c1C(=O)NCCCNc1ccc(C(=O)Nc2ccc(F)cc2N)cn1` [Example 16, (Z)-N-(2-amino-4-fluorophenyl)-6-(3-(2-((5-fluoro-2-oxoindolin-3-ylidene)-methyl)-3,5-dimethyl-1H-pyrrole-4-carboxamido)propylamino)nicotinamide]: the 50% growth inhibitory concentration (GI50) in assay [1] was over 60 µM; in assay [2] it was over 60 µM; in [3], over 60 µM; in assay [4], 39 nM; in [5] it was over 60 µM; in [7], over 60 µM. For the same molecule, the GI50 in [8], in assay [9], in [10] and in assay [11] was over 60 µM each time. In assay [6], the “% inhibition” value was found to be 6.70%.

Regarding `Cc1[nH]c(/C=N/N=C2\C(=O)Nc3ccc(F)cc32)c(C)c1C(=O)NCCCCNc1ccc(C(=O)Nc2ccc(F)cc2N)cn1` [Example 20, N-(2-amino-4-fluorophenyl)-6-(4-(2-(((5-fluoro-2-oxoindolin-3-ylidene)-hydrazono)methyl)-3,5-dimethyl-1H-pyrrole-4-carboxamido)butylamino)nicotinamide], the 50% growth inhibitory concentration (GI50) was over 60 µM in [1]; over 60 µM in assay [2]; over 60 µM in [3]; 330 nM in assay [4]; over 60 µM in assay [5]; over 60 µM in assay [7]. The GI50 in [8], in assay [9], in assay [10] and in assay [11] was over 60 µM throughout. Further, the “% inhibition” value in [6] is listed as 3.50%.

Turning to `Cc1[nH]c(/C=C2\C(=O)Nc3ccc(F)cc32)c(C)c1C(=O)NCCNc1ccc(C(=O)Nc2ccc(F)cc2N)cn1` [Example 13, (Z)-N-(2-amino-4-fluorophenyl)-6-(2-(2-((5-fluoro-2-oxoindolin-3-ylidene)-methyl)-3,5-dimethyl-1H-pyrrole-4-carboxamido)ethylamino)nicotinamide], the GI50 in assay [1] was over 60 µM; in assay [2] it was over 60 µM; in [3] it was over 60 µM; in assay [4] it was 7 nM; in [5], over 60 µM; in assay [7] it was over 60 µM. Also, the GI50 in assay [8], in assay [9], in [10] and in assay [11] was over 60 µM each time. Also, the “% inhibition” value in [6] was −2.60%.

As for `Cc1[nH]c(/C=C2\C(=O)Nc3ccc(F)cc32)c(C)c1C(=O)NCCNc1ccc(C(=O)Nc2ccccc2N)cn1` [Example 3, (Z)-N-(2-aminophenyl)-6-(2-(2-((5-fluoro-2-oxoindolin-3-ylidene)methyl)-3,5-dimethyl-1H-pyrrole-4-carboxamido)ethylamino)nicotinamide], the GI50 in assay [1] was over 60 µM; in [2], over 60 µM; in [3], over 60 µM; in [4], under 1 nM; in assay [5] it was over 60 µM; in assay [7] it was over 60 µM. Moreover, the GI50 in assay [8], in assay [9], in [10] and in assay [11] was over 60 µM each time. Besides, the “% inhibition” value in [6] turned out to be 9.20%.
